# Tests used:
# Lb. acidophilus = experiment: Survival of probiotic bacteria during the drying process; type: cell-based; conditions: acid used as the weak acid in the mix
# Text: The pH of the final product will dictate the type of weak acid to be utilised.
# experimental animals = conditions: cited from earlier work
SMILES,Viability of probiotic bacteria during the drying process (Lb. acidophilus),Hazard to man or animals (experimental animals; at the level succinic acid occurs naturally in foods),Amount tolerated by experimental animals (experimental animals; experimental animals)
O=C1O[C@H]([C@@H](O)CO)C(O)=C1O [Ascorbic acid],has not effect,,
"O=C(O)CCC(=O)O [succinic acid, butanedioic acid]",has not effect,no evidence that it is hazardous,several
